Some test systems named below: LOX IMVI; MDA-N; SN12C; EKVX; HOP-62; MDA-MB-231; Hs-578T; CCRF-CEM; SNB-19; UACC-62; NCI-H460; SK-MEL-28; SK-OV-3; M14; RXF 393; SF-539; NCI/ADR-RES; HL-60; U-251.
What all share (experiment): inhibition of tumour cell growth, NCI panel, 48 h

Experimental findings from ChEMBL document CHEMBL1201862, “PubChem BioAssay data set” (2004) are described below.

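Protocol summary: plate cells (96-well), add compound at 5 concentrations, incubate 48 h, interpolate endpoints linearly. Here, GI50 denotes the concentration required for 50% inhibition of growth.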 Active and inactive are the calls of the source. Cut-off read from the data, not from the text of the source: active = GI50 up to about 1.1 µM and inactive = higher.

For `O=[N+]([O-])c1ccc2c(c1)=[N+]([O-])C1(CCCCC1)[N+]=2[O-]`, the GI50 is 19.9 µM (inactive) in the experiment with LOX IMVI; 18 µM (inactive) in the experiment with MDA-N; 17.5 µM (inactive) in the experiment on SN12C; 15.5 µM (inactive) with EKVX; 17.1 µM (inactive) with HOP-62; 18.2 µM (inactive) with MDA-MB-231. The GI50 with Hs-578T was 21.5 µM (inactive); with CCRF-CEM it was 3.36 µM (inactive); in the experiment with SNB-19 it was 36.4 µM (inactive); in the experiment on UACC-62 it was 10.4 µM (inactive); in the experiment with NCI-H460, 18.8 µM (inactive); with SK-MEL-28, 19.3 µM (inactive). Moreover, the GI50 with SK-OV-3 was 22.5 µM (inactive); with M14, 15.6 µM (inactive); in the experiment on RXF 393 it was 18.5 µM (inactive); with SF-539, 18.5 µM (inactive); with NCI/ADR-RES, 26.2 µM (inactive); in the experiment on HL-60 it was 3.27 µM (inactive). Also, in the experiment with U-251, the GI50 was 17.2 µM (inactive).
On to `[N-]=[N+]=NI1OC(C(F)(F)F)(C(F)(F)F)c2ccccc21`, for which the GI50 is 15.2 µM (inactive) in the experiment on LOX IMVI; 14.6 µM (inactive) in the experiment on SN12C; 16.9 µM (inactive) in the experiment with EKVX; 15.1 µM (inactive) in the experiment with HOP-62; 15.1 µM (inactive) in the experiment with MDA-MB-231; 12.6 µM (inactive) with Hs-578T. In addition, the GI50 was 7.85 µM (inactive) with CCRF-CEM; > 100 µM (inactive) in the experiment on SNB-19; 18 µM (inactive) with UACC-62; 13.9 µM (inactive) with SK-MEL-28; 21.5 µM (inactive) in the experiment on SK-OV-3; 31.2 µM (inactive) in the experiment with M14. Besides, the GI50 with RXF 393 was 14 µM (inactive); in the experiment with SF-539, 16.5 µM (inactive); with NCI/ADR-RES, 18.6 µM (inactive); in the experiment with HL-60, 15.4 µM (inactive); with U-251, 18.1 µM (inactive).
Turning to `O=C(/C=C1\Nc2ccccc2C(=O)N1c1ccccc1Cl)c1ccccc1`, the GI50 with LOX IMVI, in the experiment with SN12C, in the experiment with EKVX, in the experiment on HOP-62, with CCRF-CEM and in the experiment with SNB-19 was > 100 µM (inactive) in each case. Further, the GI50 in the experiment on UACC-62, in the experiment with NCI-H460, in the experiment on SK-MEL-28, in the experiment on SK-OV-3, in the experiment with M14 and in the experiment with RXF 393 was > 100 µM (inactive) each time. Moreover, the results for the GI50 with SF-539, in the experiment with HL-60 and in the experiment on U-251 were > 100 µM (inactive), 47 µM (inactive) and > 100 µM (inactive), respectively.
As to `CC(=O)Oc1cc2c[n+](C)c3c4cc(OC(C)=O)c(OC(C)=O)cc4ccc3c2cc1OC(C)=O`, the GI50 was 2.82 µM (inactive) with LOX IMVI; 5.51 µM (inactive) in the experiment with MDA-N; 3.43 µM (inactive) in the experiment on SN12C; 3.56 µM (inactive) in the experiment on EKVX; 3.71 µM (inactive) in the experiment with HOP-62; > 100 µM (inactive) in the experiment with Hs-578T. Also, the GI50 with SNB-19 was 2.3 µM (inactive); in the experiment with UACC-62 it was 3.97 µM (inactive); with NCI-H460, 4.93 µM (inactive); with SK-MEL-28, > 100 µM (inactive); in the experiment on SK-OV-3, 4.32 µM (inactive); in the experiment on M14 it was 4.38 µM (inactive). Moreover, the values for the GI50 in the experiment with RXF 393, with NCI/ADR-RES and in the experiment with U-251 were 0.168 µM (active), 2.54 µM (inactive) and 1.72 µM (inactive), respectively.
`CN(C)c1nc(NN)c2c(-c3ccccc3)c(-c3ccccc3)oc2n1`: the GI50 in the experiment on LOX IMVI is > 100 µM (inactive); in the experiment on SN12C, > 100 µM (inactive); with EKVX it was > 100 µM (inactive); in the experiment with MDA-MB-231, > 100 µM (inactive); in the experiment on Hs-578T it was 45.8 µM (inactive); in the experiment with CCRF-CEM, 52.5 µM (inactive). Further, the GI50 was > 100 µM (inactive) in the experiment on SNB-19; 44.8 µM (inactive) in the experiment on UACC-62; > 100 µM (inactive) in the experiment on SK-MEL-28; > 100 µM (inactive) with SK-OV-3; > 100 µM (inactive) in the experiment on M14; > 100 µM (inactive) in the experiment on RXF 393. The GI50 with SF-539, with NCI/ADR-RES and in the experiment on U-251 was > 100 µM (inactive) each time.
For the compound `CCC(=O)COc1ccc(NC(NC(=O)C(C(F)(F)F)C(F)(F)F)(C(F)(F)F)C(F)(F)F)cc1`, the GI50 is 28.6 µM (inactive) in the experiment with LOX IMVI; 28.3 µM (inactive) with MDA-N; > 10 µM (inactive) in the experiment with SN12C; 49.2 µM (inactive) with EKVX; > 100 µM (inactive) in the experiment with HOP-62; 26.5 µM (inactive) in the experiment with MDA-MB-231. The GI50 with Hs-578T was 31 µM (inactive); in the experiment on CCRF-CEM, 22.3 µM (inactive); in the experiment with SNB-19 it was 46.9 µM (inactive); in the experiment on NCI-H460, 77.4 µM (inactive); in the experiment with SK-MEL-28 it was 59.4 µM (inactive); in the experiment on SK-OV-3, 55.6 µM (inactive). The GI50 in the experiment with M14 was 47.8 µM (inactive); in the experiment with RXF 393, 18.6 µM (inactive); in the experiment with SF-539, 25.3 µM (inactive); with NCI/ADR-RES, 18.9 µM (inactive); in the experiment with HL-60 it was 22.2 µM (inactive); in the experiment on U-251, 46.7 µM (inactive).
On to `Cc1ccc(/C=N/Nc2ncccn2)s1`, for which the GI50 in the experiment on LOX IMVI, in the experiment with MDA-N, in the experiment with SN12C, with EKVX, in the experiment on HOP-62 and in the experiment on MDA-MB-231 was > 100 µM (inactive) throughout. Besides, the GI50 with Hs-578T, in the experiment with CCRF-CEM, in the experiment on SNB-19, in the experiment on UACC-62, in the experiment on SK-MEL-28 and with SK-OV-3 was > 100 µM (inactive) in each case. Moreover, the GI50 with M14, in the experiment on RXF 393, in the experiment on SF-539, in the experiment with NCI/ADR-RES and with U-251 was > 100 µM (inactive) throughout.
With `FC1=C2C3CCC(C3)C2C1(F)F` (stereo unspecified), the GI50 with LOX IMVI, in the experiment on MDA-N, in the experiment on SN12C, in the experiment with EKVX, in the experiment with HOP-62 and in the experiment with MDA-MB-231 was > 100 µM (inactive) in each case. The GI50 was 47.6 µM (inactive) with CCRF-CEM; > 100 µM (inactive) in the experiment on SNB-19; > 100 µM (inactive) in the experiment on UACC-62; > 100 µM (inactive) with NCI-H460; > 100 µM (inactive) in the experiment on SK-MEL-28; > 100 µM (inactive) in the experiment with SK-OV-3. The GI50 with M14 was > 100 µM (inactive); with RXF 393 it was > 100 µM (inactive); in the experiment on SF-539 it was > 100 µM (inactive); with NCI/ADR-RES it was > 100 µM (inactive); with HL-60 it was 81.7 µM (inactive); with U-251 it was > 100 µM (inactive).
With `CC(C)=C/C=C1/CS(=O)(=O)C=C1C`, the GI50 in the experiment on LOX IMVI, in the experiment on MDA-N, with SN12C, in the experiment on EKVX, with HOP-62 and in the experiment with MDA-MB-231 was > 100 µM (inactive) in each case. Besides, the GI50 in the experiment on CCRF-CEM, in the experiment with SNB-19, in the experiment with UACC-62, in the experiment on SK-MEL-28, in the experiment on SK-OV-3 and in the experiment on M14 was > 100 µM (inactive) each time. The GI50 in the experiment on RXF 393, in the experiment with SF-539, in the experiment on NCI/ADR-RES, in the experiment on HL-60 and in the experiment with U-251 was > 100 µM (inactive) each time.
With `O=C(CC1(O)C(=O)Nc2ccc([N+](=O)[O-])cc21)c1ccc(Br)cc1` (stereo unspecified), the GI50 with LOX IMVI is 60.4 µM (inactive); in the experiment with SN12C, > 100 µM (inactive); in the experiment on EKVX it was > 100 µM (inactive); in the experiment with HOP-62, > 100 µM (inactive); in the experiment on CCRF-CEM it was 47.4 µM (inactive); with SNB-19, 44.3 µM (inactive). Besides, the GI50 with UACC-62 was 47.2 µM (inactive); in the experiment on NCI-H460, > 100 µM (inactive); with SK-MEL-28 it was > 100 µM (inactive); with SK-OV-3, 25.1 µM (inactive); with M14, > 100 µM (inactive); in the experiment on RXF 393 it was 28.6 µM (inactive). The GI50 in the experiment on SF-539 is 59.4 µM (inactive); in the experiment with HL-60, 18.6 µM (inactive); in the experiment with U-251, 22.3 µM (inactive).
Turning to `CC(=O)O[C@H]1C=CC23OC(=O)[C@]1(C)[C@H]2[C@H](C(=O)O)C12CC(=O)[C@@](CO)(CC[C@H]13)C2`, the GI50 in the experiment with LOX IMVI, in the experiment on SN12C, in the experiment with EKVX, with HOP-62, in the experiment with CCRF-CEM and in the experiment on SNB-19 was > 100 µM (inactive) each time. The GI50 with UACC-62 is 75.7 µM (inactive); with NCI-H460 it was > 100 µM (inactive); in the experiment with SK-MEL-28, > 100 µM (inactive); with SK-OV-3, > 100 µM (inactive); in the experiment on M14, > 100 µM (inactive); with RXF 393, > 100 µM (inactive). Further, the GI50 with SF-539, in the experiment on HL-60 and with U-251 was > 100 µM (inactive) throughout.
Consider `COc1cc2c(c(OC)c1OC)-c1ccc(SC)c(=O)cc1[C@@H](NCc1ccccc1[N+](=O)[O-])CC2`, for which the GI50 was 0.00834 µM (active) in the experiment with LOX IMVI; 0.0209 µM (active) in the experiment on SN12C; 0.0564 µM (active) in the experiment with EKVX; 0.0174 µM (active) with HOP-62; 0.00532 µM (active) in the experiment on CCRF-CEM; 0.0246 µM (active) in the experiment with SNB-19. Besides, the GI50 in the experiment with UACC-62 was 0.00326 µM (active); in the experiment on NCI-H460, 0.0168 µM (active); in the experiment with SK-MEL-28, 0.00444 µM (active); with SK-OV-3, 0.0041 µM (active); in the experiment with M14 it was 0.00546 µM (active); with RXF 393 it was 0.00286 µM (active). Moreover, the figures for the GI50 in the experiment with SF-539, in the experiment on HL-60 and in the experiment with U-251 were 0.00525 µM (active), 0.00313 µM (active) and 0.0154 µM (active), respectively.
